Values joined by “and” are separate entries in the source; they are usually repeats but may differ in a detail not shown here. Equal entries are not always repeated. Where two headings read alike, the source gives them in different places.
Tests used:
[1] = target: CYP1A2 (Homo sapiens (Human), UniProt P05177); test: CYP450 inhibition in human liver microsomes: CYP1A2
[2] = Metabolic stability in human liver microsomes; settings: for CLint ± SEM / t1/2: 3 μM
Description: The human liver microsome-mediated biotransformation of PEG-PI compounds was determined by monitoring the loss of the substrate as a function of time. […] Test compounds (3 μM final concentration) were preincubated with pooled (male and female) human liver microsomes (0.5 mg/mL final protein concentration) in buffer (0.1M phosphate buffer, pH 7.4) at 37° C. Reactions were initiated by the addition of NADPH (1 mM final concentration), and allowed to continue for 0, 5, 15, 30, and 45 minutes. […] Sample supernatants are analyzed by liquid chromatography-tandem mass spectrometry.

[3] = tested on: HIV-1 HT/92/599; test: HIV-1 reverse transcriptase activity after infection of fresh human PBMCs; format: cell-based
Outline: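 PHA-P/IL-2-stimulated fresh human PBMCs infected with HIV-1; supernatant reverse transcriptase activity measured by tritiated TTP incorporation on poly rA/oligo dT, 90 min at 37° C. Toxicity from 7-day uninfected PBMC culture read by XTT; TI = TC50/EC50.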

[4] = target: CYP2D6 (Homo sapiens (Human), UniProt P10635); test: CYP450 inhibition in human liver microsomes: CYP2D6
[5] = tested on: HIV-1RF; test: Anti-HIV cytoprotection in CEM-SS cells infected with HIV-1RF (XTT); format: cell-based
Description: To evaluate whether conjugated protease inhibitors retain the ability to protect against HIV-1 infection, CEM-SS cells infected with the RF strain of HIV-1 were treated with test compounds for six days, and then cell viability was monitored using the tetrazolium dye XTT. […] A value for Therapeutic Index (TI) was calculated as TC50/EC50.

[6] = tested on: cynomolgus monkey hepatocytes; test: Metabolic stability in cynomolgus monkey hepatocytes; format: in vitro ADME; settings: 0.1 uM
[7] = tested on: PBMCs; test: PBMC cytotoxicity (XTT); format: cell-based, human; settings: 7 days
Description: Mononuclear cells were isolated from fresh human peripheral blood cells by Ficoll-Hypaque density gradient by centrifugation at 600 g for 30 minutes. Banded peripheral blood mononuclear cells (PBMCs) were aspirated from the resulting interface and washed with phosphate buffered saline by low speed centrifugation. Cell viability was evaluated by Trypan Blue dye exclusion. […] Plates were incubated at 37° C., 5% CO2 for 7 days prior to cytotoxicity evaluation. XTT measurement for cytotoxicity.

[8] = tested on: HIV-1BaL; test: HIV-1 p24 levels after infection of fresh human monocyte/macrophages; format: cell-based
Description: Mononuclear cells were isolated from fresh human peripheral blood cells by Ficoll-Hypaque density gradient by centrifugation at 600 g for 30 minutes. Banded peripheral blood mononuclear cells (PBMCs) were aspirated from the resulting interface and washed with phosphate buffered saline by low speed centrifugation. […] Cells were allowed to attach for 2 to 12 h at 37° C., then washed with Dulbecco's phosphate buffered saline (DPBS). Monocyte-macrophage monolayer formation was induced by incubation in growth medium (RPMI 1640 medium supplemented with 10% fetal bovine serum, 2 mmol/L L-glutamine, 100 Units/mL penicllin and 10 μg/mL streptomycin) for 7 days. Residual PBMCs were removed by washing the cell monolayers with DPBS. After washing, test compound diluted in growth medium was added to cells. Immediately following test compound addition, HIV-1 virus was added to the cells at multiplicity of infection (MOI)=0.05-0.10. After 7 days in culture, HIV-1 replication was quantified by ELISA measurement of cell-free HIV-1 viral capsid protein (p24) in the tissue culture supernatant of treated monocyte-macrophage monolayers. ELISA to quantify p24 was performed according to manufacturer's instructions (Perkin Elmer, Waltham, Mass.). The quantity of free HIV-1 p24 antigen in the sample was determined by comparing its absorbance at 490 nm to that of control standards.
Fresh human monocytes were infected with the BaL strain of HIV-1 in the presence of test compounds. After seven days in culture, HIV-1 replication was evaluated by measurement of HIV-1 viral capsid protein (p24) in the tissue culture supernatant (Table 7). […] A TI was calculated as described above using TC50 values derived from cell toxicity data in response to test compounds in the absence of viral infection.

[9] = read-out: PBMC/HIV-1HT/92/599 EC50 ± SD, seven days, reverse transcriptase activity
[10] = six days, XTT, read-out: CEM-SS/HIV-1RF EC50 ± SD
[11] = seven days, p24, read-out: Monocyte/HIV-1BaL EC50
[12] = read-out: CYP1A2 IC50 Phenacetin, probe substrate phenacetin
[13] = read-out: CYP2D6 IC50 Dextromethorphan, probe substrate dextromethorphan

CYP1A2, sequence (P05177 whole entry): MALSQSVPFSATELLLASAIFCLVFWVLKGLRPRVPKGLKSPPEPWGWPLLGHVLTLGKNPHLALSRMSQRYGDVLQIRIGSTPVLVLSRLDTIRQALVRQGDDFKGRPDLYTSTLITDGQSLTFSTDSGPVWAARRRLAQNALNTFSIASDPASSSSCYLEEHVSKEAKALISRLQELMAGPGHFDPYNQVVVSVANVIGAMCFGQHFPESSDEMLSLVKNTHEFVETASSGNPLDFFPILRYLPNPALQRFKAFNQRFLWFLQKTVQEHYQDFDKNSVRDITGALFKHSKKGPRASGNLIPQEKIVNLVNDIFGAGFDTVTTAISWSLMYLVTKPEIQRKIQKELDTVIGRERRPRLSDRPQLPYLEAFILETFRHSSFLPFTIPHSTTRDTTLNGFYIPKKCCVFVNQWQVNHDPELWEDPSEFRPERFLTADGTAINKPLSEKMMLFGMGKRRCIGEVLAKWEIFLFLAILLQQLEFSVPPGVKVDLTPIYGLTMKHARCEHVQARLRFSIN
CYP2D6, sequence (P10635 whole entry): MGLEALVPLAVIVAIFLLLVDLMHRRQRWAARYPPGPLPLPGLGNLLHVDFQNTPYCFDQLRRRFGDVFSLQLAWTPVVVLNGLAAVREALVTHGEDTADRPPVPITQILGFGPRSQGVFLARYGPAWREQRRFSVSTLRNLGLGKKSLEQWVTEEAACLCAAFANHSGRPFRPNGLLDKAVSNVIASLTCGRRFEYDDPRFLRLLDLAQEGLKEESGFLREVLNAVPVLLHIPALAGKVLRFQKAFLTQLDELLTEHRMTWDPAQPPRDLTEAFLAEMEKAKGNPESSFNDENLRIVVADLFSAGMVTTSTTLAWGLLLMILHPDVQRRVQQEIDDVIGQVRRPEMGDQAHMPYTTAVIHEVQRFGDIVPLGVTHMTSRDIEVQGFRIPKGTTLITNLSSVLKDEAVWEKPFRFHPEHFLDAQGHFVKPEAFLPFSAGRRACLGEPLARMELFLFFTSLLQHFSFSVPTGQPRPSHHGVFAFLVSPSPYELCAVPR

Row | Compound | IC50 [1] | microsomal CLint at 3 μM ([2]; both, human, pooled human liver microsomes, pH 7.4, CLint ± SEM, human liver microsomes) | half-life at 3 μM ([2]; both, human, pooled human liver microsomes, pH 7.4, t1/2, human liver microsomes) | CLint ± SEM ([2]; human liver microsomes) | t1/2 ([2]; human liver microsomes) | EC50 ([3]; Human immunodeficiency virus 1, PBMC, 168 h, read-out: PBMC/HIV-1HT/92/599 EC50 ± SD, seven days, reverse transcriptase activity) | EC50 [3, 9] | IC50 [4] | EC50 [5, 10] | CLint ± SEM [6] | t1/2 [6] | XTT (PBMC) TC50 [7] | EC50 [8, 11] | IC50 [1, 12] | IC50 [4, 13] | EC50 ([8]; Human immunodeficiency virus 1, Monocyte, 168 h, read-out: Monocyte/HIV-1BaL EC50, seven days, p24) | EC50 ([5]; Human immunodeficiency virus 1, CEM-SS, 144 h, read-out: CEM-SS/HIV-1RF EC50 ± SD, six days, XTT) | EC50 ([5]; read-out: CEM-SS/HIV-1RF EC50 ± SD, six days, XTT)
1 | COCCOCCOCCOC(=O)NC(C(=O)NC(Cc1ccccc1)C(O)CN(Cc1ccc(-c2ccccn2)cc1)NC(=O)C(NC(=O)OC)C(C)(C)C)C(C)(C)C (stereo not shown) [mono-mPEG3-Atazanavir, {1-[N′-[2-Hydroxy-3-(2-{2-[2-(2-methoxy-ethoxy)-ethoxy]-ethoxycarbonylamino}-3,3-dimethyl-butyrylamino)-4-phenyl-butyl]-N′-(4-pyridin-2-yl-benzyl)-hydrazinocarbonyl]-2,2-dimethyl-propyl}-carbamic Acid Methyl Ester] | > 25000 nM | 248 ± 31.7 µL/min/mg | 5.58 min | 172 ± 1.39 μL/min/mg protein | 8.04 min | < 20 nM | 30 nM and 20.4 nM and 20 nM and 18.7 nM | > 25000 nM | 3 ± 2 nM | 21.0 ± 0.00203 μL/min/10^6 cells | 1.1 h | 338900 nM |  |  |  |  |  | 
2 | COCCOCCOCCOCCOCCOCCOC(=O)NC(C(=O)NC(Cc1ccccc1)C(O)CN(Cc1ccc(-c2ccccn2)cc1)NC(=O)C(NC(=O)OC)C(C)(C)C)C(C)(C)C (stereo not shown) [mono-mPEG6-Atazanavir] |  |  |  | 112 ± 1.10 μL/min/mg protein | 12.3 min |  | 108 nM and 117 nM and 60 nM |  |  | 0.245 ± 0.000245 μL/min/10^6 cells | 94.33 h |  | 43.3 ± 20.4 nM | > 25000 nM | > 25000 nM |  |  | 
3 | COCCOCCOCCOCCOCCOC(=O)NC(C(=O)NC(Cc1ccccc1)C(O)CN(Cc1ccc(-c2ccccn2)cc1)NC(=O)C(NC(=O)OC)C(C)(C)C)C(C)(C)C (stereo not shown) [mono-mPEG5-Atazanavir] |  |  |  | 108 ± 9.75 μL/min/mg protein | 12.9 min |  |  |  | 1 ± 0.6 nM | 13.8 ± 0.00163 μL/min/10^6 cells | 1.67 h |  | 56.6 ± 12.2 nM | > 25000 nM | 22200 nM |  |  | 
4 | COCCOC(=O)NC(C(=O)NC(Cc1ccccc1)C(O)CN(Cc1ccc(-c2ccccn2)cc1)NC(=O)C(NC(=O)OC)C(C)(C)C)C(C)(C)C (stereo not shown) [mono-mPEG1-Atazanavir] |  |  |  | 181 ± 0.640 μL/min/mg protein | 7.65 min |  | < 20 nM |  | 2 ± 0.6 nM | 70.3 ± 0.0027 μL/min/10^6 cells | 0.328 h |  | < 20 nM | > 25000 nM | 18300 nM |  |  | 
5 | COCCOCCOCCOCCOCCOCCOCCNc1ccc(S(=O)(=O)N(CC(C)C)CC(O)[C@H](Cc2ccccc2)NC(=O)O[C@H]2CO[C@H]3OCC[C@H]32)cc1 (stereo partly shown) [mPEG7-N-Darunavir] |  |  |  | 356 ± 7.74 μL/min/mg protein | 3.89 min |  | 73 ± 12 nM |  | 14 nM and 11 nM | 0.286 ± 0.504 μL/min/10^6 cells | 80.83 h | 381300 nM | 577 ± 423 nM |  |  |  |  | 
6 | COCCOCCOCCOCCOCCNc1ccc(S(=O)(=O)N(CC(C)C)CC(O)[C@H](Cc2ccccc2)NC(=O)O[C@H]2CO[C@H]3OCC[C@H]32)cc1 (stereo partly shown) [mPEG5-N-Darunavir] |  |  |  | 440 ± 19.0 μL/min/mg protein | 3.15 min |  | < 20 nM and 33 nM |  |  | 26.5 ± 0.942 μL/min/10^6 cells | 0.872 h | 223500 nM | 303 ± 366 nM |  |  |  |  | 
7 | COC(=O)N[C@H](C(=O)N[C@@H](Cc1ccccc1)[C@@H](O)CN(Cc1ccc(-c2ccccn2)cc1)NC(=O)[C@@H](NC(=O)OC)C(C)(C)C)C(C)(C)C [Atazanavir, reference compound] | 20600 nM |  |  |  |  |  |  | 14900 nM | 15 ± 14 nM |  |  | 109400 nM |  |  |  |  |  | 
8 | COCCOCCOCCOCCOCCOc1ccc(C[C@H](NC(=O)O[C@H]2CO[C@H]3OCC[C@H]32)C(O)CN(CC(C)C)S(=O)(=O)c2ccc(N)cc2)cc1 (stereo partly shown) [mPEG5-O-Darunavir] |  |  |  | 198 ± 22.1 μL/min/mg protein | 7.00 min |  | 90 ± 8 nM |  |  |  |  | >400000 nM | 263 ± 155 nM |  |  |  |  | 
9 | COCCOCCOCCOc1ccc(C[C@H](NC(=O)O[C@H]2CO[C@H]3OCC[C@H]32)C(O)CN(CC(C)C)S(=O)(=O)c2ccc(N)cc2)cc1 (stereo partly shown) [mPEG3-O-Darunavir] |  |  |  | 77.4 ± 9.14 μL/min/mg protein | 17.9 min |  | 27 ± 6 nM |  |  | 8.53 ± 0.563 μL/min/10^6 cells | 2.72 h | >400000 nM | 1030 ± 1450 nM |  |  |  |  | 
10 | CC(C)CN(C[C@@H](O)[C@H](Cc1ccccc1)NC(=O)O[C@H]1CO[C@H]2OCC[C@H]21)S(=O)(=O)c1ccc(N)cc1 [Darunavir, reference compound] |  |  |  |  |  |  |  |  |  |  |  | 328400 nM |  |  |  | < 20 nM | < 0.7 nM | < 0.66 nM and 1 nM
11 | COCCOCCOCCOCCOCCOCCOCCOC(=O)NC(C(=O)NC(Cc1ccccc1)C(O)CN(Cc1ccc(-c2ccccn2)cc1)NC(=O)C(NC(=O)OC)C(C)(C)C)C(C)(C)C (stereo not shown) [mono-mPEG7-Atazanavir] |  |  |  | 71.0 ± 5.63 μL/min/mg protein | 19.5 min |  | 163 ± 30 nM |  | 30 ± 20 nM |  |  |  | 137 ± 60.1 nM | > 25000 nM | > 25000 nM |  |  | 

Reference: patent publication US10806794B2, “Protease inhibitors having enhanced features” (priority 2008, dated 2020)
